Measurements: patent US20180148418A1, “AMIDO-SUBSTITUTED CYCLOHEXANE DERIVATIVES” (Bayer Pharma Aktiengesellschaft, priority 2015, published 2018)

What was measured:
[1] = system: HEK293 cells cotransfected with the FOP control vector; assay: HEK293 FOP assay (control reporter with non-functional TCF elements); type: cell-based; settings: Homo sapiens, 16 hours
In short: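 Compound series from 50 μM down to 15 nM, prediluted in DMSO then 50-fold into CAFTY buffer (pH 7.4, 2 mM Ca2+, 0.01% BSA), tested alongside TOP cells on a Geneticin-selected HEK293 FOP line whose TCF elements are replaced by a random sequence; recombinant human Wnt-3a applied at 2500-5 ng/ml.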

[2] = molecular target: T1, TNKS2 (Homo sapiens, UniProt Q9H2K2); assay: TNKS2 Assay B (auto-parsylation, [3H]-NAD+ SPA); type: biochemical; settings: 6 nM TNKS2, auto-parsylation, over night at room temperature
T1 construct: purchased BPS Bioscience, San Diego, USA 80572 (TNKS2 Histone Ribosylation Assay Kit)
T1 sequence (Q9H2K2 1-1166): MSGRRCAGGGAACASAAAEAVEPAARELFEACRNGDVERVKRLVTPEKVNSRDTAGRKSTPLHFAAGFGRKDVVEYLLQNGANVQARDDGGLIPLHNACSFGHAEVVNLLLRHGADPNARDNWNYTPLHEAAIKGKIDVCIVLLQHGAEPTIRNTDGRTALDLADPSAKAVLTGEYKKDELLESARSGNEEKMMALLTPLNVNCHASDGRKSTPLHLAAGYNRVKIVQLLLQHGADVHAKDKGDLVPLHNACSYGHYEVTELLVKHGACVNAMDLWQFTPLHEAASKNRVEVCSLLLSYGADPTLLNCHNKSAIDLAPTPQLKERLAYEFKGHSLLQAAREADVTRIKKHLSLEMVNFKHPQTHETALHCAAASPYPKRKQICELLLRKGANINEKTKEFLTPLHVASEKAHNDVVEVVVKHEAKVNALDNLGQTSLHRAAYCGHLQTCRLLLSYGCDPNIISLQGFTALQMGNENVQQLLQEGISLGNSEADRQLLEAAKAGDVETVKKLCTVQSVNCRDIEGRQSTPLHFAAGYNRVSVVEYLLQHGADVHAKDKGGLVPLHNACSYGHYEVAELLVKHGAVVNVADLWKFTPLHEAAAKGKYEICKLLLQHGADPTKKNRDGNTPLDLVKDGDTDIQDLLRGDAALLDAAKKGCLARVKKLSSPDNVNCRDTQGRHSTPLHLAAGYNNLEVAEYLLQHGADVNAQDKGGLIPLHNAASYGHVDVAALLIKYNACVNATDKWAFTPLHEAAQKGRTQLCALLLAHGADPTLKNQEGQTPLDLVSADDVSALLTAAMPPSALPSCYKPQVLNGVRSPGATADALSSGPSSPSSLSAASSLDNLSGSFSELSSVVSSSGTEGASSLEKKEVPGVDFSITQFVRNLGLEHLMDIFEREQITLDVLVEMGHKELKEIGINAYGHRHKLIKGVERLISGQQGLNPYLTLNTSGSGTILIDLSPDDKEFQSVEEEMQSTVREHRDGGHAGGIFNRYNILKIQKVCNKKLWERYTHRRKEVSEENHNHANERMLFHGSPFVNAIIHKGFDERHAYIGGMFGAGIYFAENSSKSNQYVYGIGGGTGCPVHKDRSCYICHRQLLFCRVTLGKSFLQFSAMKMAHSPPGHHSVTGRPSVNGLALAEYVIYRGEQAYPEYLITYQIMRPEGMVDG

[3] = system: wildtype Wnt signaling cascade; assay: HEK293 TOP assay (Super TopFlash luciferase reporter, Wnt-3a stimulated); type: cell-based; settings: Homo sapiens, HEK293, 16 h, HEK293 TOP reporter cells, Wnt3a at EC50, 16 hours
In short: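 Compound series (50 μM down to 15 nM, 3.16-fold) diluted from DMSO 50-fold into CAFTY buffer, pH 7.4, 2 mM Ca^2+, 0.01% BSA, applied to Wnt-3a-stimulated HEK293 TopFlash and FOP reporter lines in parallel. Cells seeded 10000/well 24 h before; luciferase signal measured.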

| IC50 [2] | IC50 [3] | Compound | IC50 [1] |
| --- | --- | --- | --- |
| 10 nM | 2.7 nM | O=C(N[C@H]1CC[C@@]2(CCCN(c3cc(F)c(F)cc3Cl)C2=O)CC1)c1cnn2cccnc12 [Example 313, N-[(trans)-2-(2-chloro-4,5-difluorophenyl)-1-oxo-2-azaspiro[5.5]undec-9-yl]pyrazolo[1,5-a]pyrimidine-3-carboxamide] | ≥ 500 nM |
| 21 nM | 69 nM | O=C(NCCN1CCOCC1)c1nc[nH]c1C(=O)N[C@H]1CC[C@@]2(CCN(c3cccc(Cl)c3)C2=O)CC1 [Example 287, N^5-[(trans)-2-(3-chlorophenyl)-1-oxo-2-azaspiro[4.5]dec-8-yl]-N^4-[2-(morpholin-4-yl)ethyl]-1H-imidazole-4,5-dicarboxamide] | ≥ 50000 nM |
| > 10000 nM | 2900 nM | COCCNC(=O)c1nc[nH]c1C(=O)N[C@H]1CC[C@]2(CCN(c3ccc(F)cc3Cl)C2=O)CC1 [Example 341, N^5-[(cis)-2-(2-chloro-4-fluorophenyl)-1-oxo-2-azaspiro[4.5]dec-8-yl]-N^4-(2-methoxyethyl)-1H-imidazole-4,5-dicarboxamide] | ≥ 50000 nM |
| 11 nM | 1.9 nM | Cc1ccnc2c(C(=O)N[C@H]3CC[C@@]4(CCN(c5ccccc5Cl)C4=O)CC3)cnn12 [Example 273, N-[(trans)-2-(2-chlorophenyl)-1-oxo-2-azaspiro[4.5]dec-8-yl]-7-methylpyrazolo[1,5-a]pyrimidine-3-carboxamide] | ≥ 50000 nM |
| 3.8 nM | 8 nM | O=C(N[C@H]1CC[C@@]2(CCN(c3ccc(F)cc3Cl)C2=O)CC1)c1cnn2ccc(N3CCOCC3)nc12 [Example 231, N-[(trans)-2-(2-chloro-4-fluorophenyl)-1-oxo-2-azaspiro[4.5]dec-8-yl]-5-(morpholin-4-yl)pyrazolo[1,5-a]pyrimidine-3-carboxamide] | ≥ 500 nM |
| 4.1 nM | 24 nM | Cc1cc(N2CCC[C@]3(CC[C@@H](NC(=O)c4[nH]cnc4C(=O)NCCN4CCC(C)CC4)CC3)C2=O)c(Cl)cc1F [Example 312, N^5-[(trans)-2-(2-chloro-4-fluoro-5-methylphenyl)-1-oxo-2-azaspiro[5.5]undec-9-yl]-N^4-[2-(4-methylpiperidin-1-yl)ethyl]-1H-imidazole-4,5-dicarboxamide] | ≥ 500 nM |
| 8.8 nM | 1.6 nM | Cc1cc(N2CC[C@]3(CC[C@@H](NC(=O)c4[nH]cnc4C(=O)N4CC(F)C4)CC3)C2=O)c(Cl)cc1F [Example 292, N-[(trans)-2-(2-chloro-4-fluoro-5-methylphenyl)-1-oxo-2-azaspiro[4.5]dec-8-yl]-4-[(3-fluoroazetidin-1-yl)carbonyl]-1H-imidazole-5-carboxamide] | 10000 nM |
| 100 nM | 23 nM | O=C(N[C@H]1CC[C@@]2(CCCN(c3ccc(F)cc3Cl)C2=O)CC1)c1cnn2cccnc12 [Example 325, N-[(trans)-2-(2-chloro-4-fluorophenyl)-1-oxo-2-azaspiro[5.5]undec-9-yl]pyrazolo[1,5-a]pyrimidine-3-carboxamide] | ≥ 50000 nM |
| > 10000 nM | 2500 nM | O=C(N[C@H]1CC[C@@]2(CCN(c3ccc(F)cc3Cl)C2=O)CC1)c1n[nH]c2ccccc12 [Example 251, N-[trans-2-(2-chloro-4-fluorophenyl)-1-oxo-2-azaspiro[4.5]dec-8-yl]-1H-indazole-3-carboxamide] | ≥ 50000 nM |
| 43 nM | 14 nM | O=C(N[C@H]1CC[C@@]2(CCN(c3ccc(F)cc3Cl)C2=O)CC1)c1cnc2c(NCCC(F)(F)F)cc(Cl)nn12 [Example 349, 6-chloro-N-[(trans)-2-(2-chloro-4-fluorophenyl)-1-oxo-2-azaspiro[4.5]dec-8-yl]-8-[(3,3,3-trifluoropropyl)amino]imidazo[1,2-b]pyridazine-3-carboxamide] | ≥ 50000 nM |
| 7.9 nM | 1.6 nM | Cc1cc(N2CC[C@]3(CC[C@@H](NC(=O)c4[nH]cnc4C(=O)N4CC5(COC5)C4)CC3)C2=O)c(Cl)cc1F [Example 293, N-[(trans)-2-(2-chloro-4-fluoro-5-methylphenyl)-1-oxo-2-azaspiro[4.5]dec-8-yl]-4-(2-oxa-6-azaspiro[3.3]hept-6-ylcarbonyl)-1H-imidazole-5-carboxamide] | ≥ 50000 nM |
| > 10000 nM | 5100 nM | O=C(N[C@H]1CC[C@@]2(CCN(c3ccc(F)cc3Cl)C2=O)CC1)c1n[nH]c2cccc(I)c12 [Example 248, N-[(trans)-2-(2-chloro-4-fluorophenyl)-1-oxo-2-azaspiro[4.5]dec-8-yl]-4-iodo-1H-indazole-3-carboxamide] | ≥ 50000 nM |
| > 10000 nM | ≥ 50000 nM | O=C(N[C@H]1CC[C@H](C(=O)Nc2ccc(F)cc2Cl)CC1)c1c[nH]c2ccccc12 [Example 252, N-{trans-4-[(2-chloro-4-fluorophenyl)carbamoyl]cyclohexyl}-1H-indole-3-carboxamide] | ≥ 50000 nM |
| 160 nM | 260 nM | CC(C)NC(=O)c1nc[nH]c1C(=O)N[C@H]1CC[C@@]2(CCCN(c3ccc(F)cc3Cl)C2=O)CC1 [Example 329, N^5-[(trans)-2-(2-chloro-4-fluorophenyl)-1-oxo-2-azaspiro[5.5]undec-9-yl]-N^4-(propan-2-yl)-1H-imidazole-4,5-dicarboxamide] | 40000 nM |
| 47 nM | 11 nM | CNC(=O)c1nc[nH]c1C(=O)N[C@H]1CC[C@@]2(CCCN(c3cc(C)c(F)cc3Cl)C2=O)CC1 [Example 304, N^5-[(trans)-2-(2-chloro-4-fluoro-5-methylphenyl)-1-oxo-2-azaspiro[5.5]undec-9-yl]-N^4-methyl-1H-imidazole-4,5-dicarboxamide] | ≥ 500 nM |
| 75 nM | 50 nM | O=C(NC1CC1)c1nc[nH]c1C(=O)N[C@H]1CC[C@@]2(CCCN(c3ccc(F)cc3Cl)C2=O)CC1 [Example 328, N^5-[(trans)-2-(2-chloro-4-fluorophenyl)-1-oxo-2-azaspiro[5.5]undec-9-yl]-N^4-cyclopropyl-1H-imidazole-4,5-dicarboxamide] | 27000 nM |
| 9.2 nM | 1.8 nM | CCc1cc(CC)n2ncc(C(=O)N[C@H]3CC[C@@]4(CCN(c5ccc(F)cc5Cl)C4=O)CC3)c2n1 [Example 348, N-[(trans)-2-(2-chloro-4-fluorophenyl)-1-oxo-2-azaspiro[4.5]dec-8-yl]-5,7-diethyl pyrazolo[1,5-a]pyrimidine-3-carboxamide] | ≥ 50000 nM |
| 6.4 nM | 3.7 nM | O=C(N[C@H]1CC[C@@]2(CCN(c3c(F)cc(F)cc3Cl)C2=O)CC1)c1cnn2cccnc12 [Example 244, N-[(trans)-2-(2-chloro-4,6-difluorophenyl)-1-oxo-2-azaspiro[4.5]dec-8-yl]pyrazolo[1,5-a]pyrimidine-3-carboxamide] | ≥ 500 nM |
| 16 nM | 2.3 nM | Cn1cc(C(=O)N[C@H]2CC[C@@]3(CCN(c4ccc(F)cc4Cl)C3=O)CC2)c2ncccc21 [Example 343, N-[(trans)-2-(2-chloro-4-fluorophenyl)-1-oxo-2-azaspiro[4.5]dec-8-yl]-1-methyl-1H-pyrrolo[3,2-b]pyridine-3-carboxamide] | 24000 nM |
| 33 nM | 3.9 nM | COC(=O)c1ccc(N2CC[C@]3(CC[C@@H](NC(=O)c4cnn5cccnc45)CC3)C2=O)c(Cl)c1 [Example 362, methyl 3-chloro-4-{(trans)-1-oxo-8-[(pyrazolo[1,5-a]pyrimidin-3-ylcarbonyl)amino]-2-azaspiro[4.5]dec-2-yl}benzoate] | 31000 nM |
